The text below walks through data of PMC7802075 (ACS Infectious Diseases, 2020).

Molecules are shown by their SMILES. Where a SMILES comes first, the peptide text is derived from it.

The target in the first assay is T1, LmjIPCS (inositol phosphorylceramide synthase from L. major) (Leishmania major, UniProt E9AFX2).
T1 sequence (E9AFX2 1-338): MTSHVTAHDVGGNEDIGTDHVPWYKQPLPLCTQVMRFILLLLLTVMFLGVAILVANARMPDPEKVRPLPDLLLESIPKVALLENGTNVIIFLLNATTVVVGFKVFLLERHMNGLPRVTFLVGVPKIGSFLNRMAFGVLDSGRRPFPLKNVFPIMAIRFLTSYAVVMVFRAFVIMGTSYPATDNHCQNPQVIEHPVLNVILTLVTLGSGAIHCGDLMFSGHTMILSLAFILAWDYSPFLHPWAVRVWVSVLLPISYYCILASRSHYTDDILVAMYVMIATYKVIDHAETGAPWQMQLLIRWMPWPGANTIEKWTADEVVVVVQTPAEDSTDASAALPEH
Put plainly: biochemical. The format is biochemical. Set-up: inhibition: dose or concentration left out as unconfirmed.
Details: not given
In the case of `Cc1cc2c(C(C)C)c(O)c(O)c(C=O)c2c(O)c1-c1c(C)cc2c(C(C)C)c(O)c(O)c(C=O)c2c1O` [GOSSYPOL], the “20mM inhibition LmjIPCS” value came to 37%.

For the compound `N=C(N)N/N=C/c1c(Cl)cccc1Cl` [GUANABENZ ACETATE], the “20mM inhibition LmjIPCS” value was found to be 55%.

In the case of `N=C(N)N` [GUANIDINE], the “20mM inhibition LmjIPCS” value is given as 20%.

In the case of `COc1ccc2c3c([nH]c2c1)C(C)=NCC3` [HARMALINE], the “20mM inhibition LmjIPCS” value is given as 54%.

Regarding `Oc1c(Cl)cc(Cl)c(Cl)c1Cc1c(O)c(Cl)cc(Cl)c1Cl` [HEXACHLOROPHENE], the “20mM inhibition LmjIPCS” value is 41%.

For the compound `CCN(CC)CCNc1ccc(CO)c2sc3ccccc3c(=O)c12` [HYCANTHONE], the “20mM inhibition LmjIPCS” value was found to be 46%.

With `CCCCCC(=O)O[C@]1(C(C)=O)CC[C@H]2[C@@H]3CCC4=CC(=O)CC[C@]4(C)[C@H]3CC[C@@]21C` [HYDROXYPROGESTERONE CAPROATE], the “20mM inhibition LmjIPCS” value worked out at 57%.

For `Nc1c2c(nc3ccccc13)CCCC2O.O=C(O)/C=C\C(=O)O` (stereo not drawn) [HYDROXYTACRINE MALEATE], the “20mM inhibition LmjIPCS” value is 11%.

On to `OCCOCCN1CCN(C(c2ccccc2)c2ccc(Cl)cc2)CC1` (stereo not drawn) [HYDROXYZINE PAMOATE], for which the “20mM inhibition LmjIPCS” value was 45%.

As to `CCC(Cc1c(I)cc(I)c(N)c1I)C(=O)O` (stereo not drawn) [IOPANIC ACID], the “20mM inhibition LmjIPCS” value was 7.62%.

As for `COC(=O)[C@H]1[C@H]2C[C@H]3c4[nH]c5cc(OC)ccc5c4CCN3C[C@H]2C[C@@H](OC(=O)c2cc(OC)c(OC)c(OC)c2)[C@@H]1OC` [ISORESERPINE], the “20mM inhibition LmjIPCS” value came out at 47%.

With `O=C1C=CC(=O)c2c(O)cccc21` [JUGLONE], the “20mM inhibition LmjIPCS” value was found to be 48%.

Regarding `NC[C@H]1O[C@H](O[C@H]2[C@H](O)[C@@H](O[C@H]3O[C@H](CO)[C@@H](O)[C@H](N)[C@H]3O)[C@H](N)C[C@@H]2N)[C@H](O)[C@@H](O)[C@@H]1O` [KANAMYCIN], the “20mM inhibition LmjIPCS” value stood at 26%.

As to `CC(=O)N1CCN(c2ccc(OCC3COC(Cn4ccnc4)(c4ccc(Cl)cc4Cl)O3)cc2)CC1` (stereo not drawn) [KETOCONAZOLE], the “20mM inhibition LmjIPCS” value is recorded as 69%.

As for `CN1CCC(=C2c3ccccc3CC(=O)c3sccc32)CC1` [KETOTIFEN], the “20mM inhibition LmjIPCS” value was 36%.

For `CC(C)C[C@H](N)C(=O)N[C@@H](C)C(=O)O` [L-LEUCYL-L-ALANINE] (H-Leu-Ala-OH), the “20mM inhibition LmjIPCS” value was 5.46%.

With `CC(CCc1ccccc1)NCC(O)c1ccc(O)c(C(N)=O)c1` (stereo not drawn) [LABETALOL], the “20mM inhibition LmjIPCS” value amounted to 50%.

Still in this assay, the particulars now being: NINDS set screen, compound at 20mM (so in the source).
For `C[C@]12CCC(=O)C=C1CC[C@@H]1[C@@H]2[C@@H](O)C[C@@]2(C)[C@H]1CC[C@]2(O)C(=O)COC(=O)CCC(=O)O` [HYDROCORTISONE HEMISUCCINATE], the “20mM inhibition LmjIPCS” value is listed as 18%.

Staying with this assay, now noted: NINDS set screen, single concentration printed as 20mM.
Consider `CC[C@H](c1ccc(O)cc1)[C@@H](CC)c1ccc(O)cc1` [HEXESTROL], for which the “20mM inhibition LmjIPCS” value came to 34%.

Consider `CCCCCCc1ccc(O)cc1O` [HEXYLRESORCINOL], for which the “20mM inhibition LmjIPCS” value was 47%.

Turning to `CC[C@H]1CN2CC[C@H]1C[C@@H]2[C@@H](O)c1ccnc2ccc(OC)cc12` [HYDROQUINIDINE], the “20mM inhibition LmjIPCS” value stood at 58%.

The same assay, now with this note: NINDS set screen; read-out: inhibition LmjIPCS.
As a reminder, the inhibition is the drop in the measured response relative to a control, in per cent. Take `O=C(O)C1=CCCNC1` [GUVACINE]: the inhibition turned out to be 14%.

Take `CC1=NCCc2c1[nH]c1cc(O)ccc21` [HARMALOL]: the inhibition came to 17%.

Consider `CCN(CCO)CCCC(C)Nc1ccnc2cc(Cl)ccc12` (stereo not drawn) [HYDROXYCHLOROQUINE], for which the inhibition turned out to be 31%.

As to `Oc1c(I)cc(I)c2cccnc12` [IODOQUINOL], the inhibition stood at 23%.

Take `CC(C)NNC(=O)c1ccncc1` [IPRONIAZID]: the inhibition amounted to 31%.

For the compound `O=C(c1ccccc1)c1ccc2n1CCC2C(=O)O` (stereo not drawn) [KETOROLAC], the inhibition was 20%.

Still in this assay, the particulars now being: read-out: 20mM inhibition LmjIPCS.
In the case of `N[C@H]1C(O)O[C@H](CO)[C@@H](O)[C@@H]1O` (stereo partly drawn) [GLUCOSAMINE], the inhibition at 20000 µM was 10%.

As to `N[C@@H](CCC(=O)N[C@@H](CS)C(=O)NCC(=O)O)C(=O)O` [GLUTATHIONE], the inhibition at 20000 µM was -0.349%.

On to `COc1ccccc1OCC(O)CO` (stereo not drawn) [GUAIFENESIN], for which the inhibition at 20000 µM was -0.357%.

For the compound `CC1(C)O[C@@H]2C[C@H]3[C@@H]4CCC5=CC(=O)CC[C@]5(C)[C@@]4(F)[C@@H](O)C[C@]3(C)[C@]2(C(=O)CCl)O1` [HALCINONIDE], the inhibition at 20000 µM is 20%.

Take `COc1ccc2c(c1)[nH]c1c(C)nccc12` [HARMINE]: the inhibition at 20000 µM came out at 32%.

As for `Cc1[nH]ccc2c1[nH]c1cc(=O)ccc12` [HARMOL], the inhibition at 20000 µM was 15%.

On to `C[N+](C)(C)CCCCCC[N+](C)(C)C` [HEXAMETHONIUM], for which the inhibition at 20000 µM is -4%.

On to `NCCc1c[nH]cn1` [HISTAMINE], for which the inhibition at 20000 µM was 4.39%.

On to `C/C=C1\[C@H]2C=C(C)C[C@]1(N)c1ccc(=O)[nH]c1C2` [HUPERZINE A], for which the inhibition at 20000 µM was found to be 24%.

Take `NNc1nncc2ccccc12` [HYDRALAZINE]: the inhibition at 20000 µM worked out at 15%.

On to `CC(=O)OCC(=O)[C@@]1(O)CC[C@H]2[C@@H]3CCC4=CC(=O)CC[C@]4(C)[C@H]3[C@@H](O)C[C@@]21C` [HYDROCORTISONE ACETATE], for which the inhibition at 20000 µM was 7%.

Take `CCCC(=O)O[C@]1(C(=O)CO)CC[C@H]2[C@@H]3CCC4=CC(=O)CC[C@]4(C)[C@H]3[C@@H](O)C[C@@]21C` [HYDROCORTISONE BUTYRATE]: the inhibition at 20000 µM was found to be 5.61%.

For `NS(=O)(=O)c1cc2c(cc1C(F)(F)F)NCNS2(=O)=O` [HYDROFLUMETHIAZIDE], the inhibition at 20000 µM worked out at 9%.

With `Oc1ccc(O)cc1` [HYDROQUINONE], the inhibition at 20000 µM is -2.33%.

As to `CN1[C@@H]2CC[C@H]1C[C@@H](OC(=O)[C@H](CO)c1ccccc1)C2` [HYOSCYAMINE], the inhibition at 20000 µM is 4%.

`COc1ccc(-c2oc3c(CC=C(C)C)c(O[C@@H]4O[C@H](CO)[C@@H](O)[C@H](O)[C@H]4O)cc(O)c3c(=O)c2O[C@@H]2O[C@@H](C)[C@H](O)[C@@H](O)[C@H]2O)cc1` [ICARIIN]: the inhibition at 20000 µM amounted to 10%.

As for `O=[N+]([O-])NC1=NCCN1Cc1ccc(Cl)nc1` [IMIDACLOPRID], the inhibition at 20000 µM stood at 8%.

With `OCc1c[nH]c2ccccc12` [INDOLE-3-CARBINOL], the inhibition at 20000 µM is 11%.

`CC(C(=O)O)c1ccc(N2Cc3ccccc3C2=O)cc1` (stereo not drawn) [INDOPROFEN]: the inhibition at 20000 µM was -1.7%.

`O=C(CCCCC(=O)Nc1c(I)cc(I)c(C(=O)O)c1I)Nc1c(I)cc(I)c(C(=O)O)c1I` [IODIPAMIDE]: the inhibition at 20000 µM came to 7%.

Take `CC(C)[N+]1(C)[C@@H]2CC[C@H]1C[C@@H](OC(=O)C(CO)c1ccccc1)C2` (stereo partly drawn) [IPRATROPIUM BROMIDE]: the inhibition at 20000 µM is -7%.

`Cc1cc(NC(=O)C2=C(O)c3ccccc3S(=O)(=O)N2C)no1` [ISOXICAM]: the inhibition at 20000 µM was -3%.

As for `CC(COc1ccccc1)NC(C)C(O)c1ccc(O)cc1` (stereo not drawn) [ISOXSUPRINE], the inhibition at 20000 µM was 32%.

For the compound `C=C(C)[C@H]1CN[C@H](C(=O)O)[C@H]1CC(=O)O` [KAINIC ACID], the inhibition at 20000 µM stood at 14%.

As to `O=C(O)c1cc(=O)c2ccccc2[nH]1` [KYNURENIC ACID], the inhibition at 20000 µM amounted to 6%.

With `N[C@H](CO)Cc1ccccc1` [L-PHENYLALANINOL], the inhibition at 20000 µM stood at 24%.

The assay is the same for the next values; noted with them: read-out: inhibition LmjIPCS.
As for `COc1ccc(Cl)cc1C(=O)NCCc1ccc(S(=O)(=O)NC(=O)NC2CCCCC2)cc1` [GLYBURIDE], the inhibition stood at 13%.

On to `COC1=CC(=O)C[C@@H](C)[C@]12Oc1c(Cl)c(OC)cc(OC)c1C2=O` [GRISEOFULVIN], for which the inhibition amounted to 28%.

Regarding `NS(=O)(=O)c1cc2c(cc1Cl)NCNS2(=O)=O` [HYDROCHLOROTHIAZIDE], the inhibition was found to be 13%.

As to `C[C@]12CCC(=O)C=C1CC[C@@H]1[C@@H]2[C@@H](O)C[C@@]2(C)[C@H]1CC[C@]2(O)C(=O)CO` [HYDROCORTISONE], the inhibition came out at 13%.

`CC(C)Cc1ccc(C(C)C(=O)O)cc1` (stereo not drawn) [IBUPROFEN]: the inhibition was determined as 2.58%.

Consider `CC1Cc2ccccc2N1NC(=O)c1ccc(Cl)c(S(N)(=O)=O)c1` (stereo not drawn) [INDAPAMIDE], for which the inhibition came to 5%.

Turning to `COc1ccc2c(c1)c(CC(=O)O)c(C)n2C(=O)c1ccc(Cl)cc1` [INDOMETHACIN], the inhibition is -3.42%.

As to `CCCCC1=NC2(CCCC2)C(=O)N1Cc1ccc(-c2ccccc2-c2nnn[nH]2)cc1` [IRBESARTAN], the inhibition is 1%.

Consider `CC(C)Cn1c(=O)n(C)c(=O)c2[nH]cnc21` [ISOBUTYLMETHYLXANTHINE], for which the inhibition came to 14%.

For the compound `O=C(/C=C/c1ccc(O)cc1)c1ccc(O)cc1O` [ISOLIQUIRITIGENIN], the inhibition amounted to 11%.

Consider `CC(C)[N+](C)(CCC(C(N)=O)(c1ccccc1)c1ccccc1)C(C)C` [ISOPROPAMIDE], for which the inhibition is 11%.

For the compound `CC(C)NCC(O)c1ccc(O)c(O)c1` (stereo not drawn) [ISOPROTERENOL], the inhibition is 11%.

With `c1coc(CNc2ncnc3[nH]cnc23)c1` [KINETIN], the inhibition was found to be 16%.

For the compound `O=c1cc(CO)occ1O` [KOJIC ACID], the inhibition stood at 11%.

Still in this assay, the particulars now being: screening of NINDS set, sheet Screen 1; read-out: inhibition LmjIPCS.
For `O=C(O)c1ccc(S(=O)(=O)N(Cl)Cl)cc1` [HALAZONE], the inhibition came out at 10%.

With `CC1(C)S[C@@H]2[C@H](N3C(=O)[C@@H](c4ccccc4)NC3(C)C)C(=O)N2[C@H]1C(=O)O` [HETACILLIN], the inhibition was 2%.

Regarding `O=C(O)c1cc2ccccc2[nH]1` [INDOLE-2-CARBOXYLIC ACID], the inhibition worked out at 8%.

Consider `NNC(=O)c1ccncc1` [ISONIAZID], for which the inhibition was 9%.

The assay is the same for the next values; noted with them: single concentration 20mM as printed; screening of NINDS set, sheet Screen 1.
On to `NC(=O)NO` [HYDROXYUREA], for which the “20mM inhibition LmjIPCS” value came out at 11%.
